Read-outs that look alike come from different tables or passages of the source.
Experiments:
Assay type in all cases: in vivo
[1] = tested on: Amaranthus retroflexus (AMARE); assay: Post-emergence efficacy, Method B; conditions: read-out: Control of weed species after post-emergence application, AMARE
Procedure: (§1) An “instant formulation”, known as the IF50, containing 50 g/L of the “technical” (i.e. unformulated) active ingredient was prepared by dissolving the active ingredient in a mixture of organic solvents and emulsifier, details of which are provided in the table. This IF50 was then mixed with a small, variable amount of acetone to aid dissolution, before addition of an aqueous solution of 1% v/v ammonium sulphate+1% v/v Empicol ESC70 (Sodium lauryl ether sulphate) adjuvant, as the aqueous diluent, to form an aqueous spray solution which contains a predetermined concentration of the active ingredient (which varies depending on the application rate of the active ingredient to the plants).
(§2) This aqueous spray solution was then sprayed onto the plants, after about 12 days' cultivation. The plants were grown from seeds sown in standard soil, placed in a glasshouse under controlled conditions (at 24/18° C. or 20/16° C., day/night; 16 hours light; 65% humidity). After spray application the plants were then grown on in a glasshouse under the same conditions and watered twice daily. […] the test was evaluated (100=total damage to plant; 0=no damage to plant).
(§3) Ipomoea hederacea (IPOHE), Euphorbia heterophylla (EPHHL), Chenopodium album (CHEAL), Amaranthus retroflexus (AMARE), Lolium perenne (LOLPE), Digitaria sanguinalis (DIGSA), Eleusine indica (ELEIN), Echinochloa crus-galli (ECHCG), Setaria faberi (SETFA)

[2] = tested on: Chenopodium album (CHEAL); assay: Post-emergence efficacy, Method B; conditions: read-out: Control of weed species after post-emergence application, CHEAL
Procedure: as §1, §2, §3

[3] = tested on: Digitaria sanguinalis (DIGSA); assay: Post-emergence efficacy, Method B; conditions: read-out: Control of weed species after post-emergence application, DIGSA
Procedure: as §1, §2, §3

[4] = tested on: Echinochloa crus-galli (ECHCG); assay: Post-emergence efficacy, Method B; conditions: read-out: Control of weed species after post-emergence application, ECHCG
Procedure: as §1, §2, §3

Eleusine indica (ELEIN) [5] = assay: Post-emergence efficacy, Method B; conditions: read-out: Control of weed species after post-emergence application, ELEIN
Procedure: as §1, §2, §3

[6] = tested on: Euphorbia heterophylla (EPHHL); assay: Post-emergence efficacy, Method B; conditions: read-out: Control of weed species after post-emergence application, EPHHL
Procedure: as §1, §2, §3

[7] = tested on: Ipomoea hederacea (IPOHE); assay: Post-emergence efficacy, Method B; conditions: read-out: Control of weed species after post-emergence application, IPOHE
Procedure: as §1, §2, §3

Lolium perenne (LOLPE) [8] = assay: Post-emergence efficacy, Method B; conditions: read-out: Control of weed species after post-emergence application, LOLPE
Procedure: as §1, §2, §3

Setaria faberi (SETFA) [9] = assay: Post-emergence efficacy, Method B; conditions: read-out: Control of weed species after post-emergence application, SETFA
Procedure: as §1, §2, §3

[10] = tested on: Digitaria sanguinalis (DIGSA); assay: Post-emergence efficacy, Method A; conditions: Application rate 500 g/Ha; evaluated after 13 days; 100=total damage to plant, 0=no damage to plant
Method in brief: (§4)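 Post-emergence spray on 14-day-old glasshouse plants (24/16 °C day/night, 14 h photoperiod, 65% humidity). Test material was taken up in acetone and IF50 emulsifier mix, then diluted with sodium lauryl ether sulphate (0.25% or 1%) plus 1% ammonium sulphate. Damage was rated 13 days later, 100 = total.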

[11] = tested on: Echinochloa crus-galli (ECHCG); assay: Post-emergence efficacy, Method A; conditions: Application rate 500 g/Ha; evaluated after 13 days; 100=total damage to plant, 0=no damage to plant
Method in brief: as §4

Eleusine indica (ELEIN) [12] = assay: Post-emergence efficacy, Method A; conditions: evaluated after 13 days
Method in brief: as §4

[13] = tested on: Euphorbia heterophylla (EPHHL); assay: Post-emergence efficacy, Method A; conditions: evaluated after 13 days
Method in brief: as §4

Lolium perenne (LOLPE) [14] = assay: Post-emergence efficacy, Method A; conditions: Application rate 500 g/Ha; evaluated after 13 days; 100=total damage to plant, 0=no damage to plant
Method in brief: as §4

Setaria faberi (SETFA) [15] = assay: Post-emergence efficacy, Method A; conditions: Application rate 500 g/Ha; evaluated after 13 days; 100=total damage to plant, 0=no damage to plant
Method in brief: as §4

Brassica napus (BRSNN) = assay: Pre-harvest desiccation of crop plants; conditions: Table E, evaluated after 7 and 14 days (which not stated), 100=total damage to plant, 0=no damage
Procedure: (§5) Seeds of a variety of test species were sown in standard loam based soil in pots. After cultivation from between 21 and 28 days (post-emergence) under controlled conditions in a glasshouse (at 24/16° C., day/night; 14 hours light; 65% humidity) for warm climate species and (at 20/16° C. day/night; 15 hours light; 65% humidity) for cool climate species.
(§6) The plants were sprayed with an aqueous spray solution derived from dissolving the technical active ingredient formula in a small amount of acetone and a special solvent and emulsifier mixture referred to as IF50 (11.12% Emulsogen EL360 TM+44.44% N-methylpyrrolidone+44.44% Dowanol DPM glycol ether), to create a 50 g/I solution which was then diluted to required concentration using a solution of 1% Empicol ESC70 (Sodium lauryl ether sulphate)+1% ammonium sulphate in water as diluent.
(§7) The delivery of the aqueous spray solution was via a laboratory track sprayer which delivered the aqueous spray composition at a rate of 200 litres per hectare, using a flat fan nozzle (Teejet 11002VS) and an application volume of 200 litre/ha (at 2 bar).
(§8) The test plants were then grown in a glasshouse under controlled conditions (at 24/16° C., day/night; 14 hours light; 65% humidity) for warm climate species and (at 20/16° C. day/night; 15 hours light; 65% humidity) for cool climate species and watered twice daily. After 7 and 14 days the test was evaluated (100=total damage to plant; 0=no damage to plant).
(§9) A value of n/t indicates not tested.
(§10) Glycine Max (GLXMA), Solanum turberosum (SOLTU), Gossypium hirsutum (GOSHI), Brassica napus (BRSNN), Helianthus annus (HELAN)

Glycine Max (GLXMA) = assay: Pre-harvest desiccation of crop plants; conditions: Table E, evaluated after 7 and 14 days (which not stated), 100=total damage to plant, 0=no damage
Procedure: as §5, §6, §7, §8, §9, §10

[16] = tested on: Gossypium hirsutum (GOSHI); assay: Pre-harvest desiccation of crop plants; conditions: Table E, evaluated after 7 and 14 days (which not stated), 100=total damage to plant, 0=no damage
Procedure: as §5, §6, §7, §8, §9, §10

[17] = tested on: Solanum turberosum (SOLTU); assay: Pre-harvest desiccation of crop plants; conditions: Table E, evaluated after 7 and 14 days (which not stated), 100=total damage to plant, 0=no damage
Procedure: as §5, §6, §7, §8, §9, §10

[18] = tested on: Amaranthus palmeri (AMAPA); assay: Post-emergence efficacy, Method A; conditions: Amaranthus palmeri, post-emergence, 312 h; Application Rate 500 g/Ha; evaluated after 13 days; Method A; read-out: Control of weed species after post-emergence application, AMAPA (100=total damage to plant; 0=no damage to plant)
Method in brief: as §4

[19] = tested on: Chenopodium album (CHEAL); assay: Post-emergence efficacy, Method A; conditions: Chenopodium album, post-emergence, 312 h; Application Rate 500 g/Ha; evaluated after 13 days; Method A; read-out: Control of weed species after post-emergence application, CHEAL (100=total damage to plant; 0=no damage to plant)
Method in brief: as §4

[20] = Method B, 1000 g/Ha, 100=total damage to plant, 0=no damage
[21] = Application rate 500 g/Ha, 100=total damage to plant, 0=no damage to plant

N[C@@H](CCC[n+]1ccc(-c2ncccn2)cn1)C(=O)O [Compound A211, [(1S)-1-carboxy-4-(4-pyrimidin-2-ylpyridazin-1-ium-1-yl)butyl]ammonium dichloride]
pest or weed control at 500 g/ha [1]: 100%
pest or weed control at 500 g/ha [2]: 90%
pest or weed control at 500 g/ha [3]: 100%
pest or weed control at 500 g/ha [4]: 100%
pest or weed control at 500 g/ha (Eleusine indica (ELEIN) [5]): 100%
pest or weed control at 500 g/ha [6]: 80%
pest or weed control at 500 g/ha [7]: 100%
pest or weed control at 500 g/ha (Lolium perenne (LOLPE) [8]): 10%
pest or weed control at 500 g/ha (Setaria faberi (SETFA) [9]): 100%

N#C[N-]C(=O)CC[n+]1ccc(-c2ncccn2)cn1 [Compound A226]
pest or weed control at 1000 g/ha [1, 20]: 100%
pest or weed control at 1000 g/ha [2, 20]: 100%
pest or weed control at 1000 g/ha [3, 20]: 100%
pest or weed control at 1000 g/ha [4, 20]: 100%
pest or weed control at 1000 g/ha [7, 20]: 100%
pest or weed control at 1000 g/ha (Lolium perenne (LOLPE) [8]; [20]): 70%
pest or weed control at 1000 g/ha (Setaria faberi (SETFA) [9]; [20]): 70%

O=C(O)CC[n+]1ccc(-c2ncccn2)cn1.[Cl-] [Compound A26, 3-(4-pyrimidin-2-ylpyridazin-1-ium-1-yl)propanoic acid chloride]
Control of weed species after post-emergence application, DIGSA [10]: 100
Control of weed species after post-emergence application, ECHCG [11]: 100
Control of weed species after post-emergence application, ELEIN (Eleusine indica (ELEIN) [12]; [21]): 100
Control of weed species after post-emergence application, EPHHL [13, 21]: 100
Control of weed species after post-emergence application, LOLPE (Lolium perenne (LOLPE) [14]): 90
Control of weed species after post-emergence application, SETFA (Setaria faberi (SETFA) [15]): 100
Post-emergence dessication efficacy, BRSNN (Brassica napus (BRSNN); 150 g/Ha): 65
Post-emergence dessication efficacy, BRSNN (Brassica napus (BRSNN); 300 g/Ha): 97
Post-emergence dessication efficacy, BRSNN (Brassica napus (BRSNN); 600 g/Ha): 99
Post-emergence dessication efficacy, GLXMA (Glycine Max (GLXMA); 150 g/Ha): 96
Post-emergence dessication efficacy, GLXMA (Glycine Max (GLXMA); 300 g/Ha): 93
Post-emergence dessication efficacy, GLXMA (Glycine Max (GLXMA); 600 g/Ha): 99
Post-emergence dessication efficacy, GOSHI ([16]; 150 g/Ha): 100
Post-emergence dessication efficacy, GOSHI ([16]; 300 g/Ha): 100
Post-emergence dessication efficacy, GOSHI ([16]; 600 g/Ha): 100
Post-emergence dessication efficacy, SOLTU ([17]; 150 g/Ha): 62
Post-emergence dessication efficacy, SOLTU ([17]; 300 g/Ha): 95
Post-emergence dessication efficacy, SOLTU ([17]; 600 g/Ha): 73

N[C@H](CC[n+]1ccc(-c2ncccn2)cn1)C(=O)O [Compound A207, [(1R)-1-carboxy-3-(4-pyrimidin-2-ylpyridazin-1-ium-1-yl)propyl]ammonium 2,2,2-trifluoroacetate]
pest or weed control at 500 g/ha [18]: 100%
pest or weed control at 500 g/ha [19]: 100%
pest or weed control at 500 g/ha (Eleusine indica (ELEIN) [12]; Eleusine indica, post-emergence, 312 h, Application Rate 500 g/Ha, Method A, read-out: Control of weed species after post-emergence application, ELEIN (100=total damage to plant; 0=no damage to plant)): 100%
pest or weed control at 500 g/ha ([13]; Euphorbia heterophylla, post-emergence, 312 h, Application Rate 500 g/Ha, Method A, read-out: Control of weed species after post-emergence application, EPHHL (100=total damage to plant; 0=no damage to plant)): 90%
pest or weed control at 1000 g/ha [1]: 100%
pest or weed control at 1000 g/ha [2]: 90%
pest or weed control at 1000 g/ha [3]: 90%
pest or weed control at 1000 g/ha [4]: 100%
pest or weed control at 1000 g/ha (Eleusine indica (ELEIN) [5]): 100%
pest or weed control at 1000 g/ha [6]: 70%
pest or weed control at 1000 g/ha [7]: 100%
pest or weed control at 1000 g/ha (Lolium perenne (LOLPE) [8]): 20%
pest or weed control at 1000 g/ha (Setaria faberi (SETFA) [9]): 100%

Nc1ccnc(-c2cc[n+](CCC(=O)O)nc2)n1 [Compound A41]
pest or weed control at 1000 g/ha [1]: 100%
pest or weed control at 1000 g/ha [2]: 90%
pest or weed control at 1000 g/ha [3]: 100%
pest or weed control at 1000 g/ha [4]: 100%
pest or weed control at 1000 g/ha (Eleusine indica (ELEIN) [5]): 50%
pest or weed control at 1000 g/ha [6]: 100%
pest or weed control at 1000 g/ha [7]: 20%
pest or weed control at 1000 g/ha (Lolium perenne (LOLPE) [8]): 60%
pest or weed control at 1000 g/ha (Setaria faberi (SETFA) [9]): 100%

O=S(=O)([O-])CC[n+]1ccc(-c2cccnn2)cn1 [Compound A213, 2-(4-pyridazin-1-ium-3-ylpyridazin-1-ium-1-yl)ethanesulfonate chloride]
pest or weed control at 1000 g/ha [1]: 100%
pest or weed control at 1000 g/ha [2]: 80%
pest or weed control at 1000 g/ha [3]: 100%
pest or weed control at 1000 g/ha [4]: 100%
pest or weed control at 1000 g/ha (Eleusine indica (ELEIN) [5]): 100%
pest or weed control at 1000 g/ha [6]: 100%
pest or weed control at 1000 g/ha [7]: 80%
pest or weed control at 1000 g/ha (Lolium perenne (LOLPE) [8]): 90%
pest or weed control at 1000 g/ha (Setaria faberi (SETFA) [9]): 100%
